Assays:
Test in all cases: relative viability (nuclei count vs DMSO), 5 days (fraction); higher = more cells survive
NCI-H1666 = system: NCI-H1666
Summary of the method: (§1)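 A single step with final 0.05% Triton X-100, 1% formaldehyde and 1 ug/ml Hoechst fixed the cells and stained nuclei 5 days after treatment. Lung cancer cell lines in 1536-well plates had been treated by pin tool the day after seeding with one drug alone or a fixed anchor-drug dose plus five library-drug doses (not always all listed) in √10 steps, and nuclei were counted on 4× images. Relative viability is the ratio of nuclei in treated wells to nuclei in vehicle wells, taken as the median of duplicate plates.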

NCI-H2085 = system: NCI-H2085
Summary of the method: as §1

NCI-H661 = system: NCI-H661
Summary of the method: as §1

ABC-1 = system: ABC-1
Summary of the method: as §1

NCI-H1355 = system: NCI-H1355
Summary of the method: as §1

NCI-H1395 = system: NCI-H1395
Summary of the method: as §1

NCI-H838 = system: NCI-H838
Summary of the method: as §1

NCI-H647 = system: NCI-H647
Summary of the method: as §1

HOP-62 = system: HOP-62
Summary of the method: as §1

NCI-H23 = system: NCI-H23
Summary of the method: as §1

NCI-H2347 = system: NCI-H2347
Summary of the method: as §1

NCI-H2228 = system: NCI-H2228
Summary of the method: as §1

201T = system: 201T
Summary of the method: as §1

CAL-12T = system: CAL-12T
Summary of the method: as §1

NCI-H2170 = system: NCI-H2170
Summary of the method: as §1

LCLC-103H = system: LCLC-103H
Summary of the method: as §1

NCI-H1993 = system: NCI-H1993
Summary of the method: as §1

COR-L23 = system: COR-L23
Summary of the method: as §1

NCI-H1651 = system: NCI-H1651
Summary of the method: as §1

NCI-H520 = system: NCI-H520
Summary of the method: as §1

NCI-H322M = system: NCI-H322M
Summary of the method: as §1

LC-2-ad = system: LC-2-ad
Summary of the method: as §1

Structure (SMILES): Cc1cnc(-c2cnc(NCCNc3ccc(C#N)cn3)nc2-c2ccc(Cl)cc2Cl)[nH]1 + Cc1nc(Nc2ncc(C(=O)Nc3c(C)cccc3Cl)s2)cc(N2CCN(CCO)CC2)n1 [Dasatinib] (partner 0.075 µM)
- relative viability (NCI-H1666; first compound 0.08 µM): 0.897
- relative viability (NCI-H1666; first compound 0.253 µM): 0.671
- relative viability (NCI-H1666; first compound 0.8 µM): 0.845
- relative viability (NCI-H1666; first compound 2.53 µM): 0.7
- relative viability (NCI-H2085; first compound 0.08 µM): 0.247
- relative viability (NCI-H2085; first compound 0.253 µM): 0.239
- relative viability (NCI-H2085; first compound 0.8 µM): 0.21
- relative viability (NCI-H2085; first compound 2.53 µM): 0.239
- relative viability (NCI-H661; first compound 0.08 µM): 1.04
- relative viability (NCI-H661; first compound 0.253 µM): 0.778
- relative viability (NCI-H661; first compound 0.8 µM): 0.845
- relative viability (NCI-H661; first compound 2.53 µM): 0.794
- relative viability (ABC-1; first compound 0.08 µM): 0.553
- relative viability (ABC-1; first compound 0.8 µM): 0.476
- relative viability (ABC-1; first compound 2.53 µM): 0.417
- relative viability (NCI-H1355; first compound 0.08 µM): 0.749
- relative viability (NCI-H1355; first compound 0.253 µM): 0.664
- relative viability (NCI-H1355; first compound 0.8 µM): 0.746
- relative viability (NCI-H1355; first compound 2.53 µM): 0.689
- relative viability (NCI-H1395; first compound 0.08 µM): 0.405
- relative viability (NCI-H1395; first compound 0.253 µM): 0.401
- relative viability (NCI-H1395; first compound 0.8 µM): 0.443
- relative viability (NCI-H1395; first compound 2.53 µM): 0.432
- relative viability (NCI-H838; first compound 0.08 µM): 0.276
- relative viability (NCI-H838; first compound 0.253 µM): 0.307
- relative viability (NCI-H838; first compound 0.8 µM): 0.306
- relative viability (NCI-H838; first compound 2.53 µM): 0.363
- relative viability (NCI-H647; first compound 0.08 µM): 0.229
- relative viability (NCI-H647; first compound 0.253 µM): 0.197
- relative viability (NCI-H647; first compound 0.8 µM): 0.179
- relative viability (NCI-H647; first compound 2.53 µM): 0.223
- relative viability (HOP-62; first compound 0.08 µM): 0.67
- relative viability (HOP-62; first compound 0.253 µM): 0.668
- relative viability (HOP-62; first compound 0.8 µM): 0.709
- relative viability (HOP-62; first compound 2.53 µM): 0.749
- relative viability (NCI-H23; first compound 0.08 µM): 0.879
- relative viability (NCI-H23; first compound 0.253 µM): 0.751
- relative viability (NCI-H23; first compound 0.8 µM): 0.871
- relative viability (NCI-H23; first compound 2.53 µM): 0.713
- relative viability (NCI-H2347; first compound 0.08 µM): 0.279
- relative viability (NCI-H2347; first compound 0.253 µM): 0.309
- relative viability (NCI-H2347; first compound 0.8 µM): 0.283
- relative viability (NCI-H2347; first compound 2.53 µM): 0.333
- relative viability (NCI-H2228; first compound 0.08 µM): 0.548
- relative viability (NCI-H2228; first compound 0.253 µM): 0.554
- relative viability (NCI-H2228; first compound 0.8 µM): 0.494
- relative viability (NCI-H2228; first compound 2.53 µM): 0.424
- relative viability (201T; first compound 0.08 µM): 0.621
- relative viability (201T; first compound 0.8 µM): 0.591
- relative viability (201T; first compound 2.53 µM): 0.571
- relative viability (CAL-12T; first compound 0.08 µM): 0.523
- relative viability (CAL-12T; first compound 0.253 µM): 0.358
- relative viability (CAL-12T; first compound 0.8 µM): 0.23
- relative viability (CAL-12T; first compound 2.53 µM): 0.198
- relative viability (NCI-H2170; first compound 0.08 µM): 0.556
- relative viability (NCI-H2170; first compound 0.253 µM): 0.345
- relative viability (NCI-H2170; first compound 0.8 µM): 0.576
- relative viability (NCI-H2170; first compound 2.53 µM): 0.487
- relative viability (LCLC-103H; first compound 0.08 µM): 0.404
- relative viability (LCLC-103H; first compound 0.253 µM): 0.442
- relative viability (LCLC-103H; first compound 0.8 µM): 0.434
- relative viability (LCLC-103H; first compound 2.53 µM): 0.433
- relative viability (NCI-H1993; first compound 0.08 µM): 0.58
- relative viability (NCI-H1993; first compound 0.253 µM): 0.568
- relative viability (NCI-H1993; first compound 0.8 µM): 0.499
- relative viability (NCI-H1993; first compound 2.53 µM): 0.996
- relative viability (COR-L23; first compound 0.253 µM): 0.419
- relative viability (COR-L23; first compound 0.8 µM): 0.51
- relative viability (COR-L23; first compound 2.53 µM): 0.5
- relative viability (NCI-H1651; first compound 0.08 µM): 0.426
- relative viability (NCI-H1651; first compound 0.253 µM): 0.436
- relative viability (NCI-H1651; first compound 0.8 µM): 0.376
- relative viability (NCI-H1651; first compound 2.53 µM): 0.355
- relative viability (NCI-H520; first compound 0.08 µM): 0.219
- relative viability (NCI-H520; first compound 0.253 µM): 0.186
- relative viability (NCI-H520; first compound 0.8 µM): 0.245
- relative viability (NCI-H520; first compound 2.53 µM): 0.299
- relative viability (NCI-H322M; first compound 0.08 µM): 0.246
- relative viability (NCI-H322M; first compound 0.253 µM): 0.281
- relative viability (NCI-H322M; first compound 0.8 µM): 0.248
- relative viability (NCI-H322M; first compound 2.53 µM): 0.274
- relative viability (LC-2-ad; first compound 0.08 µM): 0.662
- relative viability (LC-2-ad; first compound 0.253 µM): 0.486
- relative viability (LC-2-ad; first compound 2.53 µM): 0.471

From the supplement of paper PMC10307832
